Reference: patent US20250223296A1, “HYDROXYMETHYL AZABICYCLO[2.2.1]HEPTANES AND MEDICAL USES THEREOF” (ATROGI AB, priority 2022, published 2025)

How the values were obtained:
[1] = tested on: L6-myotubes; assay: Glucose uptake (3H-2-deoxyglucose) in differentiated L6-myotubes; format: cell-based; conditions: compound at 10 µM (1×10^−5 M) vs isoproterenol at 10 µM, read-out: Biological example 1: glucose uptake, activity compared to that of isoproterenol
Experimental: L6-myoblasts were grown in Dulbecco's Modified Eagle's Medium (DMEM) containing 1 g/L glucose supplemented with 10% fetal bovine serum, 2 mM L-Glutamine, 50 U/ml penicillin, 50 μg/mL streptomycin and 10 mM HEPES. Cells were plated at 1×10^5 cells per mL in 24-well plates. After reaching 90% confluence the cells were grown in medium containing 2% FBS for 7 days where upon cells differentiated into myotubes. Differentiated L6-myotubes were serum-starved overnight in medium containing 0.5% fatty-acid free BSA and stimulated with an agonist, with a final concentration of 1×10^−5 M. After 1 h 40 min the cells were washed with warm glucose free medium or PBS twice and another portion of agonist was added to the glucose free medium. After 20 min the cells were exposed to 50 nM ^3H-2-deoxyglucose for another 10 min before washed in ice cold glucose free medium or PBS three times and lysed in 400 μL/well 0.2 M NaOH for 1 h at 60° C. The cell lysate was mixed with 4 mL scintillation buffer (Emulsifier Safe, Perkin Elmer) and the radioactivity was detected in a β-counter (Tri-Carb 4810TR, Perkin Elmer). The activity for each compound is compared to that of isoproterenol.

[2] = tested on: L6-myotubes; assay: Measurement of intracellular cAMP levels in differentiated L6 cells; format: cell-based; conditions: Rattus norvegicus, L6, 0.25 h, compound at 10 µM (1×10^−5 M), 15 min, vs isoproterenol at 10 µM, read-out: Biological example 2: intracellular cAMP levels, activity compared to that of isoproterenol
Experimental: L6-myoblasts were grown in Dulbecco's Modified Eagle's Medium (DMEM) containing 1 g/L glucose supplemented with 10% fetal bovine serum, 2 mM L-Glutamine, 50 U/ml penicillin, 50 μg/mL streptomycin and 10 mM HEPES. Cells were plated at 1×10^5 cells per mL in 24-well plates. After reaching 90% confluence the cells were grown in medium containing 2% FBS for 7 days where upon cells differentiated into myotubes. Differentiated cells were serum-starved overnight and stimulated with an agonist, final concentration 1×10^−5 M, for 15 min in stimulation buffer (HBSS supplemented with 1% BSA, 5 mM HEPES and 1 mM IBMX, pH 7.4). The medium was aspirated and 100 μL of 95% EtOH was added to each well of the 24-well plate and cells were kept at −20° C. overnight. The EtOH was allowed to evaporate and 500 μL of lysis buffer (1% BSA, 5 mM HEPES and 0.3% Tween-20, pH 7.4) was added to each well. The plate was kept at −80° C. for 30 min and then at −20° C. until the day of detection when the samples were thawed. Intracellular cAMP levels were detected using an alpha screen CAMP kit (6760635D from Perkin Elmer). The activity for each compound is compared to that of isoproterenol.

Row | Compound | Emax at 10 µM [1] | Emax at 10 µM [2]
1 | O[C@H](c1cccc(F)c1)C12CCC(COCc3ccc(Cl)cc3)(CC1)N2 [Example 1, (R)-(4-(((4-Chlorobenzyl)oxy)methyl)-7-azabicyclo[2.2.1]heptan-1-yl)(3-fluorophenyl)methanol] | > 75% | < 25%
2 | O[C@@H](c1cccc(F)c1)C12CCC(COCc3ccc(Cl)cc3)(CC1)N2 [Example 2, (S)-(4-(((4-Chlorobenzyl)oxy)methyl)-7-azabicyclo[2.2.1]heptan-1-yl)(3-fluorophenyl)methanol] | 50 to 75% | < 25%
3 | O[C@H](c1cccc(F)c1)C12CCC(COCc3ccc(F)cc3)(CC1)N2 [Example 3, (R)-(4-(((4-Fluorobenzyl)oxy)methyl)-7-azabicyclo[2.2.1]heptan-1-yl)(3-fluorophenyl)methanol] | > 75% | 25 to 50%
4 | O[C@@H](c1cccc(F)c1)C12CCC(COCc3ccc(F)cc3)(CC1)N2 [Example 4, (S)-(4-(((4-Fluorobenzyl)oxy)methyl)-7-azabicyclo[2.2.1]heptan-1-yl)(3-fluorophenyl)methanol] | 25 to 50% | < 25%
5 | O[C@H](c1cncc(F)c1)C12CCC(COCc3ccc(F)cc3)(CC1)N2 [Example 5, (R)-(4-(((4-Fluorobenzyl)oxy)methyl)-7-azabicyclo[2.2.1]heptan-1-yl)(5-fluoropyridin-3-yl)methanol] | > 75% | 25 to 50%
6 | O[C@@H](c1cncc(F)c1)C12CCC(COCc3ccc(F)cc3)(CC1)N2 [Example 6, (S)-(4-(((4-Fluorobenzyl)oxy)methyl)-7-azabicyclo[2.2.1]heptan-1-yl)(5-fluoropyridin-3-yl)methanol] | 50 to 75% | < 25%
7 | O[C@H](c1cccc(F)c1)C12CCC(Cc3ccccc3)(CC1)N2 [Example 7, (R)-(4-Benzyl-7-azabicyclo[2.2.1]heptan-1-yl)(3-fluorophenyl)methanol] | > 75% | 25 to 50%
8 | O[C@@H](c1cccc(F)c1)C12CCC(Cc3ccccc3)(CC1)N2 [Example 8, (S)-(4-Benzyl-7-azabicyclo[2.2.1]heptan-1-yl)(3-fluorophenyl)methanol] | 50 to 75% | < 25%
9 | COc1ccc(CC23CCC([C@H](O)c4cccc(F)c4)(CC2)N3)cc1 [Example 9, (R)-(3-Fluorophenyl)(4-(4-methoxybenzyl)-7-azabicyclo[2.2.1]heptan-1-yl)methanol] | > 75% | < 25%
10 | COc1ccc(CC23CCC([C@@H](O)c4cccc(F)c4)(CC2)N3)cc1 [Example 10, (S)-(3-Fluorophenyl)(4-(4-methoxybenzyl)-7-azabicyclo[2.2.1]heptan-1-yl)methanol] | 50 to 75% | < 25%
11 | O[C@H](c1cccc(F)c1)C12CCC(Cc3ccc(F)cc3)(CC1)N2 [Example 11, (R)-(4-(4-Fluorobenzyl)-7-azabicyclo[2.2.1]heptan-1-yl)-(3-fluoro-phenyl)methanol] | > 75% | < 25%
12 | O[C@@H](c1cccc(F)c1)C12CCC(Cc3ccc(F)cc3)(CC1)N2 [Example 12, (S)-(4-(4-Fluorobenzyl)-7-azabicyclo[2.2.1]heptan-1-yl)-(3-fluorophenyl)methanol] | 50 to 75% | < 25%
13 | CO[C@H]1CC[C@H](CCC23CCC([C@H](O)c4cccc(F)c4)(CC2)N3)CC1 [Example 13, (R)-(3-Fluorophenyl)(4-(2-(trans-4-methoxycyclohexyl)ethyl)-7-azabicyclo[2.2.1]heptan-1-yl)methanol] | > 75% | 50 to 75%
14 | CO[C@H]1CC[C@H](CCC23CCC([C@@H](O)c4cccc(F)c4)(CC2)N3)CC1 [Example 14, (S)-(3-Fluorophenyl)(4-(2-((trans)-4-methoxycyclohexyl)ethyl)-7-aza-bicyclo[2.2.1]heptan-1-yl)methanol] | 50 to 75% | < 25%
15 | O[C@H](c1cccc(F)c1)C12CCC(COCc3ccc(OC(F)(F)F)cc3)(CC1)N2 [Example 15, (R)-(3-Fluorophenyl)(4-(((4-(trifluoromethoxy)benzyl)oxy)methyl)-7-azabicyclo[2.2.1]heptan-1-yl)methanol] | < 25% | < 25%
16 | O[C@@H](c1cccc(F)c1)C12CCC(COCc3ccc(OC(F)(F)F)cc3)(CC1)N2 [Example 16] | < 25% | < 25%
17 | O[C@H](c1cncc(F)c1)C12CCC(COCc3ccc(OC(F)(F)F)cc3)(CC1)N2 [Example 17, (R)-(5-Fluoropyridin-3-yl)(4-(((4-(trifluoromethoxy)benzyl)oxy)-methyl)-7-azabicyclo[2.2.1]heptan-1-yl)methanol] | 50 to 75% | < 25%
18 | O[C@@H](c1cncc(F)c1)C12CCC(COCc3ccc(OC(F)(F)F)cc3)(CC1)N2 [Example 18, (S)-(5-Fluoropyridin-3-yl)(4-(((4-(trifluoromethoxy)benzyl)oxy)methyl)-7-azabicyclo[2.2.1]heptan-1-yl)methanol] | < 25% | < 25%
19 | O[C@H](c1cccc(F)c1)C12CCC(Cc3ccc(OC(F)(F)F)cc3)(CC1)N2 [Example 19, (R)-(3-Fluorophenyl)(4-(4-(trifluoromethoxy)benzyl)-7-azabicyclo-[2.2.1]heptan-1-yl)methanol] | < 25% | < 25%
20 | O[C@@H](c1cccc(F)c1)C12CCC(Cc3ccc(OC(F)(F)F)cc3)(CC1)N2 [Example 20, (S)-(3-Fluorophenyl)(4-(4-(trifluoromethoxy)benzyl)-7-azabicyclo-[2.2.1]heptan-1-yl)methanol] | < 25% | < 25%
21 | CS(=O)(=O)N(Cc1ccccc1)c1ccc(CC23CCC([C@H](O)c4cccc(F)c4)(CC2)N3)cc1 [Example 21] | 25 to 50% | < 25%
22 | CS(=O)(=O)N(Cc1ccccc1)c1ccc(CC23CCC([C@@H](O)c4cccc(F)c4)(CC2)N3)cc1 [Example 22, N-Benzyl-N-(4-((4-((S)-(3-fluorophenyl)(hydroxy)methyl)-7-aza-bicyclo[2.2.1]heptan-1-yl)methyl)phenyl)methanesulfonamide] | 25 to 50% | < 25%
23 | CS(=O)(=O)N(Cc1ccccc1)c1cccc(CC23CCC([C@H](O)c4cccc(F)c4)(CC2)N3)c1 [Example 23, N-Benzyl-N-(3-((4-((R)-(3-fluorophenyl)(hydroxy)methyl)-7-aza-bicyclo[2.2.1]heptan-1-yl)methyl)phenyl)methanesulfonamide] | 50 to 75% | < 25%
24 | CS(=O)(=O)N(Cc1ccccc1)c1cccc(CC23CCC([C@@H](O)c4cccc(F)c4)(CC2)N3)c1 [Example 24, N-Benzyl-N-(3-((4-((S)-(3-fluorophenyl)(hydroxy)methyl)-7-aza-bicyclo[2.2.1]heptan-1-yl)methyl)phenyl)methanesulfonamide] | 50 to 75% | < 25%
25 | CS(=O)(=O)Nc1ccc(CC23CCC([C@H](O)c4cccc(F)c4)(CC2)N3)cc1 [Example 25, N-(4-((4-((R)-(3-Fluorophenyl)(hydroxy)methyl)-7-azabicyclo[2.2.1]-heptan-1-yl)methyl)phenyl)methanesulfonamide] | 50 to 75% | < 25%
26 | CS(=O)(=O)Nc1ccc(CC23CCC([C@@H](O)c4cccc(F)c4)(CC2)N3)cc1 [Example 26, N-(4-((4-((S)-(3-Fluorophenyl)(hydroxy)methyl)-7-azabicyclo[2.2.1]-heptan-1-yl)methyl)phenyl)methanesulfonamide] | 50 to 75% | < 25%
27 | CS(=O)(=O)Nc1cccc(CC23CCC([C@H](O)c4cccc(F)c4)(CC2)N3)c1 [Example 27, N-(3-((4-((R)-(3-Fluorophenyl)(hydroxy)methyl)-7-azabicyclo-[2.2.1]heptan-1-yl)methyl)phenyl)methanesulfonamide] | 50 to 75% | < 25%
28 | CS(=O)(=O)Nc1cccc(CC23CCC([C@@H](O)c4cccc(F)c4)(CC2)N3)c1 [Example 28, N-(3-((4-((S)-(3-Fluorophenyl)(hydroxy)methyl)-7-azabicyclo[2.2.1]-heptan-1-yl)methyl)phenyl)methanesulfonamide] | 50 to 75% | < 25%
